Source: patent US9334256B2, “Agents and methods for treating ischemic and other diseases” (NoNO INC., priority 2011, dated 2016)
Entries after “also recorded” stand apart in the source; their conditions may differ.

Key:
TRPM7 = target: T1, TRPM7 (Mus musculus, UniProt Q923J1); test: PI uptake cell death assay in TRPM7-expressing HEK-293 cells (type of assay from Example 1); assay type: cell-based, murine; details: Table X
T1 construct: expressed in transfected cells; host or cells: HEK-293 tSA (HEK-293T) cells, transient transfection with Lipofectamine 2000
T1 sequence (Q923J1 whole entry): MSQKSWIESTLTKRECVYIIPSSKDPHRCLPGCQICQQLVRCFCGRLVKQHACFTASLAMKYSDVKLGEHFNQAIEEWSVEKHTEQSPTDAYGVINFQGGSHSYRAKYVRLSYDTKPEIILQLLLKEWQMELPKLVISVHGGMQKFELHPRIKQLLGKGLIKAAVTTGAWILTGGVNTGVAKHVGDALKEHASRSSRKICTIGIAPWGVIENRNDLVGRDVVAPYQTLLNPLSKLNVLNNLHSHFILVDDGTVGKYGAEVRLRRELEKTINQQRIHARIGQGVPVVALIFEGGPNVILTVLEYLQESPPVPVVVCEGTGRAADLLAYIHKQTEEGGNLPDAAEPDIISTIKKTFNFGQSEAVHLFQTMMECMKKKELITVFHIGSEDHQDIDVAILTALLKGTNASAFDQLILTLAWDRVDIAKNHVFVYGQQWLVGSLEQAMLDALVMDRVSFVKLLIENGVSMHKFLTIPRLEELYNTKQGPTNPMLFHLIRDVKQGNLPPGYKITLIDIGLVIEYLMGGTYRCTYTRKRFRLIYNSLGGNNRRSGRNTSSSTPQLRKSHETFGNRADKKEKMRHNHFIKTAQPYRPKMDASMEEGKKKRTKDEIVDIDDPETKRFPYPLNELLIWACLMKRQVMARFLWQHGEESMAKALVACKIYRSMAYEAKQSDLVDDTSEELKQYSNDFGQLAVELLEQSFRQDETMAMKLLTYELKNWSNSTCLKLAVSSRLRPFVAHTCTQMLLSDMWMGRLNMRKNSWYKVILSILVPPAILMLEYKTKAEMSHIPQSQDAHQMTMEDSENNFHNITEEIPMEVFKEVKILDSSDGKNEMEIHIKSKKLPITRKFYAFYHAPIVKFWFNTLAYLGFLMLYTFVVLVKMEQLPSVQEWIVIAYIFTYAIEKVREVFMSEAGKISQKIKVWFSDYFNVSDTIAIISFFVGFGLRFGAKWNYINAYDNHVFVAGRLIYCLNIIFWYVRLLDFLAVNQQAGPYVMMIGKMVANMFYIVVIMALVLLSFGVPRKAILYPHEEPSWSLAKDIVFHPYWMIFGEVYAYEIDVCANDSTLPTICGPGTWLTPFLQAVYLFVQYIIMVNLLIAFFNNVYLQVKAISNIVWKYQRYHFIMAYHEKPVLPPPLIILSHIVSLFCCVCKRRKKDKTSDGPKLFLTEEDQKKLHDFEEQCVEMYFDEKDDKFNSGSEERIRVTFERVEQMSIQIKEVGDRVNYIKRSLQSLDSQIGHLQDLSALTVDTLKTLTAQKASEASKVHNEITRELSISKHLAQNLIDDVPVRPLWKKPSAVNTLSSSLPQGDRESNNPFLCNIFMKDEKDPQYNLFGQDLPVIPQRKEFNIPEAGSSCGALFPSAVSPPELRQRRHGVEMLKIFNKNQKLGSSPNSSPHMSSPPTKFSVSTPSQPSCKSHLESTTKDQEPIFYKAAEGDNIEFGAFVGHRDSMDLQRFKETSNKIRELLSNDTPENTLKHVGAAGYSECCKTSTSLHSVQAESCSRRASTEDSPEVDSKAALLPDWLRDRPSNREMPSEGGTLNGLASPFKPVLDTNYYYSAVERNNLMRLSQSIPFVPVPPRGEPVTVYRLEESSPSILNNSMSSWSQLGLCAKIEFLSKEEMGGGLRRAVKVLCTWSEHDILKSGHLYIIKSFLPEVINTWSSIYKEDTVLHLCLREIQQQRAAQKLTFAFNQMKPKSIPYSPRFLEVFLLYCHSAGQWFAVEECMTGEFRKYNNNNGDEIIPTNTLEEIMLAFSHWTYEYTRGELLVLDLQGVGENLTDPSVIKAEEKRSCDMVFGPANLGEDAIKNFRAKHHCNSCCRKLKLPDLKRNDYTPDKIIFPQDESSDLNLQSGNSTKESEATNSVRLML

cancer cell lines = test: Cell proliferation studies, cancer cell lines in general; assay type: cell-based; details: summary statement
Protocol: Cells were grown to 70% confluency, trypsinized, counted, and seeded in 96-well flat-bottom plates at a final concentration of 2.5×10^3-5.0×10^3 cells/well in growth media containing 5% FBS (Day 0). Other well sizes and cell densities were used successfully as well. Cells were allowed to incubate in growth media for 24 hours to allow for maximum adhesion. Treatment with the test agent began on Day 1 and continued for 72 hours either with or without retreatment. At the 72 hour time point, viable cell numbers are quantified by the CellTiter-Glo® cell viability assay as described above, or using standard MTT, SRB or BrDU assays. Experiments were repeated at least twice with the same concentrations to determine growth inhibitory activity. […] In an alternative format, this assay was used to screen potential TRPM7 inhibitory compounds at a fixed concentration, usually 5 or 10 uM. Alternatively, lower or higher concentrations were used. […] Thus, for the compounds in Table 1, all are potential anti-cancer agents. Some, like 399 and 509, are more general and may be effective against a wide range of cancers. Others, like 2785, are more specific and may be effective against a subset of cancers.
Data Collection—For the cell proliferation studies, data from each experiment was collected and expressed as % Cell Growth using the following calculation: % Cell Growth=(ftest/fvehicle)×100 Where ftest is the luminescent signal of the tested sample, and fvehicle is the luminescence of the vehicle in which the drug is dissolved (or appropriate measure for the other viability/proliferation measures). Dose response graphs and IC50 values were generated using standard software using the following variable slope equation: […]

neurons = test: Sublethal neuronal stretch injury model, survival by PI fluorescence; assay type: cell-based; details: applied 1 hour after stretch injury, PI fluorescence 24 hours after; FIG. 3
Protocol: Likewise, TRPM7 inhibitors are also expected to provide neuroprotection to other types of brain injuries. […] This model is described in Arundine et al, (J. Neurosci, 2004:8106-23). TRPM7 inhibitors such as M21 were applied 1 hour after stretch injury and cells were assessed for survival by PI fluorescence 24 hours after the injury. […] Thus, this assay can be predictive of in vivo efficacy.

Cc1c(Cc2ccc(Cl)c(Cl)c2)c(=O)oc2cc(O)ccc12 [Compound M21]
IC50 (TRPM7): 4.97 µM
inhibition of proliferation of cancer cell lines (cancer cell lines): effective in inhibiting proliferation of a retinoblastoma cell line
protection from cell death after stretch injury (neurons): can protect neurons from cell death due to stretch injuries; also recorded: increased protection from cell death
